Laboratory results taken from publication PMC11466185, “Mechanisms and efficacy of small molecule latency-promoting agents to inhibit HIV reactivation ex vivo” (JCI Insight, 2024).

Assays:
PBMCs = test: Cell viability by trypan blue staining after 24 hours; type: cell-based, human; set-up: key to Viability (dose-response): % of activated DMSO control viability; conditions: for Viability (dose-response): 1 participant per drug, in % (unit assumed)
Procedure: Figure 1 Screening of candidate LPAs by measuring the change in multiply spliced HIV transcripts after activation. Each drug was tested in PBMCs from 2 ART-suppressed study participants (denoted in the legend by varying symbol shapes). PBMCs were aliquoted into wells at 6 × 10^6 cells/well. After activation, the cells were cultured with antiretrovirals in the presence of individual drugs in DMSO or DMSO alone as control. All conditions were tested in the presence of CD3/28 T cell–activating beads, except for the unactivated DMSO condition. (A) After 24 hours, the viability was measured by trypan blue staining and then normalized to the levels of the activated DMSO (% of activated DMSO). Bars indicate medians. (B) Total cellular RNA was extracted, and the levels of multiply spliced HIV transcripts (TatRev) were measured by RT-ddPCR, normalized to 1 μg of total cellular RNA, and expressed as a percentage of the activated DMSO control (% of activated DMSO). RT-dd, reverse transcription digital droplet; vRNA, viral RNA; HAT, histone acetyltransferase.
For quantification of cell-associated HIV transcripts, PBMCs were harvested either after 24 hours or after 6 days. The cell viabilities were measured by trypan blue staining; then the cells were pelleted by centrifuging at 300g for 6 minutes and stored at –80°C. For quantification of virion-associated HIV RNA, cell culture supernatant was collected from 6 × 10^6 PBMCs that were treated and activated for 6 days as described above. Residual cells and cellular debris were subsequently removed from the supernatant by differential centrifugation (300g for 6 minutes, then 20,000g for 10 minutes), and the supernatant was stored at –80°C.

[1] = system: HIV transcripts (TAR, LLTR, Pol, PolyA, TatRev); test: Baseline HIV transcription without activation, PBMCs from ART-suppressed PWH, 24 hours; type: cell-based; conditions: no activation; for HIV transcription levels in the absence of T cell activation (in words): at least 3 PWH; for LLTR HIV transcripts (DMSO = 100) / Pol HIV transcripts (DMSO = 100) / PolyA HIV transcripts (DMSO = 100) / Tat-Rev HIV transcripts (DMSO = 100) / TAR HIV transcripts (DMSO = 100): pladienolide B 10nM
Procedure: For a selection of the compounds, we evaluated the ability to reduce baseline HIV transcription without activation. PBMCs were cultured in the presence of individual drugs in DMSO or DMSO alone as a control and harvested after 24 hours. For each drug, we tested PBMCs from at least 3 PWH, as indicated in Supplemental Figure 5B. […] Likewise, pladienolide B appeared to reduce the level of multiply spliced transcripts (33%, Supplemental Figure 5, A and B).
PBMCs were isolated from fresh venous blood from 16 ART-suppressed HIV-infected study participants using Ficoll density gradient centrifugation. The cells were seeded at 6 × 10^6 cells/well and cultured with antiretrovirals (nevirapine and indinavir) to prevent new infection. On the next day, PBMCs were activated with anti-CD3/CD28–coated beads (Invitrogen) in the presence of 20 U/mL IL-2 and individual drugs in DMSO or DMSO alone as a control. Since we were limited in the PBMC yield per study participant, different study participants were used for different experiments (such as the initial screen, dose response, different time points, and studies in activated vs. unstimulated cells). In addition, the yields of PBMCs were sometimes insufficient to test all drugs for a given question or experiment.
Total cellular DNA and RNA were extracted in parallel using Trireagent (Molecular Research Center) according to the manufacturer’s instructions, except for study participants 2147 and 2461 (Figure 4), for whom DNA and RNA were extracted using the QIAGEN AllPrep DNA/RNA/miRNA Universal Kit with on-column DNase I treatment of the RNA and the manufacturer’s modification to enhance recovery of short transcripts. RNA and DNA concentrations were measured using UV spectrophotometry (NanoDrop One, Thermo Fisher Scientific). Total initiated HIV (TAR) transcripts were quantified by a 3-step polyadenylation RT-ddPCR as described previously ([8], [84]). HIV 5′ elongated (LLTR), midtranscribed (Pol), completed (PolyA), and multiply spliced (TatRev) transcripts were quantified by a 2-step RT-ddPCR as previously described ([8]). The levels of each HIV transcript were normalized to 1 μg of total cellular RNA and expressed as a percentage of the (activated) DMSO control. To quantify virion-associated RNA in supernatant, RNA was extracted from 400 μL supernatant using Trireagent-LS (Molecular Research Center) according to the manufacturer’s instructions. Levels of U3-polyadenylated HIV RNA were measured in the supernatant by RT-ddPCR, normalized to copies/mL, and expressed as a percentage of the activated DMSO. For measuring the HIV infection frequency at day 6, the HIV DNA U3-U5 LTR region was quantified by using ddPCR as described previously ([8]). HIV DNA copies were normalized to cell numbers according to the mass of DNA input per well (calculated from the DNA concentration and input volume) ([85]).
Figure S5. CDK-inhibitors appear to decrease baseline HIV splicing even in the absence of T cell activation. Each drug was tested in PBMCs from at least three ART-suppressed study participants and PBMCs were aliquoted into wells at 6x10^6 cells/well. The cells were cultured with antiretrovirals but without activation in the presence of individual drugs in (1 picture or pasted object on this page, not shown here)
DMSO or DMSO alone as control. After 24h, total RNA was extracted and the progression through different stages of HIV transcription was quantified by measuring the levels of initiated (TAR), 5’ elongated (LLTR), mid-transcribed/unspliced (Pol), completed (PolyA) and multiply spliced (TatRev) HIV transcripts. A-B) The levels of all HIV transcripts were quantified, normalized to 1 µg of total cellular RNA, and expressed as a percent of the DMSO control (% of DMSO). A) Medians are shown, as well as the values of the individual study participants in different colors. B) The medians from panel A) are presented. The effect of each drug on the different transcripts was studied in three to six study participants, as […]

[2] = participant 156, ruxolitinib 4μM, dinaciclib 8nM, AZD4573 8nM, KRIBB11 2.5μM
[3] = participant 156, ruxolitinib 4μM, dinaciclib 8nM, AZD4573 8nM, pladienolide B, KRIBB11 2.5μM
[4] = participant 163, ruxolitinib 4μM, dinaciclib 8nM, AZD4573 8nM, KRIBB11 2.5μM
[5] = participant 163, ruxolitinib 4μM, dinaciclib 8nM, AZD4573 8nM, pladienolide B, KRIBB11 2.5μM
[6] = participant 2027, ruxolitinib 4μM, dinaciclib 8nM, AZD4573 8nM, KRIBB11 2.5μM
[7] = participant 2027, ruxolitinib 4μM, dinaciclib 8nM, AZD4573 8nM, pladienolide B, KRIBB11 2.5μM
[8] = participant 1379, ruxolitinib 4μM, dinaciclib 8nM, AZD4573 8nM, KRIBB11 2.5μM
[9] = participant 2750, ruxolitinib 4μM, dinaciclib 8nM, AZD4573 8nM, KRIBB11 2.5μM
[10] = participant 5557 (DMSO cell empty), ruxolitinib 4μM, dinaciclib 8nM, AZD4573 8nM, KRIBB11 2.5μM

| SMILES | Viability (Fig 1A) (PBMCs; study participant 150a) | Viability (Fig 1A) (PBMCs; study participant 152) | HIV transcription levels in the absence of T cell activation (in words) ([1]; 24 hours) | LLTR HIV transcripts (DMSO = 100) [1, 2] | Pol HIV transcripts (DMSO = 100) [1, 2] | PolyA HIV transcripts (DMSO = 100) [1, 2] | Tat-Rev HIV transcripts (DMSO = 100) [1, 2] | LLTR HIV transcripts (DMSO = 100) [1, 4] | Pol HIV transcripts (DMSO = 100) [1, 4] | PolyA HIV transcripts (DMSO = 100) [1, 4] | Tat-Rev HIV transcripts (DMSO = 100) [1, 4] | LLTR HIV transcripts (DMSO = 100) [1, 6] | Pol HIV transcripts (DMSO = 100) [1, 6] | PolyA HIV transcripts (DMSO = 100) [1, 6] | TAR HIV transcripts (DMSO = 100) [1, 6] | LLTR HIV transcripts (DMSO = 100) [1, 8] | Pol HIV transcripts (DMSO = 100) [1, 8] | PolyA HIV transcripts (DMSO = 100) [1, 8] | TAR HIV transcripts (DMSO = 100) [1, 8] | further results |
| --- | --- | --- | --- | --- | --- | --- | --- | --- | --- | --- | --- | --- | --- | --- | --- | --- | --- | --- | --- | --- |
| CNc1ccc([N+](=O)[O-])c(Nc2ccc3[nH]ncc3c2)n1 [KRIBB11] | 102.97 % of activated DMSO | 101.83 % of activated DMSO | little effect | 90.95 | 85.77 | 144.03 | 735.63 | 72.79 | 89.89 | 74.5 | 0 | 71.57 | 64.26 | 97.36 | 144.19 | – | – | – | – | PolyA/LLTR ratio (DMSO = 1) [1, 3]: 1.584; TatRev/PolyA ratio (DMSO = 1) [1, 3]: 5.108; PolyA/LLTR ratio (DMSO = 1) [1, 5]: 1.0234; TatRev/PolyA ratio (DMSO = 1) [1, 5]: 0; LLTR/TAR ratio (DMSO = 1) [1, 7]: 0.4964; PolyA/LLTR ratio (DMSO = 1) [1, 7]: 1.36 |
| CCc1cnn2c(NCc3ccc[n+]([O-])c3)cc(N3CCCC[C@H]3CCO)nc12 [dinaciclib] | 96.36 % of activated DMSO | 99.43 % of activated DMSO | – | 121.36 | 49.08 | 67.47 | 0 | 142.94 | 207.39 | 173.7 | 0 | 82.61 | 131.38 | 193.29 | 248.84 | 40.3 | 0 | 20.95 | 228.89 | Viability (dose-response) (PBMCs; dose 1 nM): 89.474; Viability (dose-response) (PBMCs; dose 4 nM): 89.815; Viability (dose-response) (PBMCs; dose 8 nM): 89.726; 5′ elongated HIV transcripts without activation compared to DMSO ([1]; 24 hours): did not reduce; Completed HIV transcripts without activation compared to DMSO ([1]; 24 hours): did not reduce; HIV splicing (TatRev/PolyA) without activation ([1]; 24 hours, not statistically significant): severely reduce; LLTR HIV transcripts (DMSO = 100) [1, 9]: 83.98; Pol HIV transcripts (DMSO = 100) [1, 9]: 102.74; PolyA HIV transcripts (DMSO = 100) [1, 9]: 91.99; TAR HIV transcripts (DMSO = 100) [1, 9]: 108.94; Tat-Rev HIV transcripts (DMSO = 100) [1, 9]: 0; LLTR HIV transcripts (DMSO = 100) [1, 10]: 59.59; Pol HIV transcripts (DMSO = 100) [1, 10]: 0; TAR HIV transcripts (DMSO = 100) ([1]; participant 5557, ruxolitinib 4μM, dinaciclib 8nM, AZD4573 8nM, KRIBB11 2.5μM): 176.06 |
| N#CC[C@H](C1CCCC1)n1cc(-c2ncnc3[nH]ccc23)cn1 [ruxolitinib] | 95.89 % of activated DMSO | 102.01 % of activated DMSO | little effect | 91.78 | 118.18 | 108.3 | 167.91 | 148.94 | 91.9 | 183.43 | 0 | 57.36 | 74.54 | 109.96 | 90.7 | 49.44 | 31.32 | 9.4 | 170 | Viability (dose-response) (PBMCs; dose 0.4 µM): 90.244; Viability (dose-response) (PBMCs; dose 1 µM): 87.333; Viability (dose-response) (PBMCs; dose 4 µM): 92.053; Viability (dose-response) (PBMCs; dose 10 µM): 89.32 |
